Experimental data as given in ChEMBL document CHEMBL3885861, “Open TG-GATES”.

Species on record: Rattus norvegicus
Test: Open TG-GATES - Regimen: Daily Repeat
Type: toxicity, organism-based, Sprague-Dawley
Design: regimen Daily Repeat, gender Male, age 6 weeks
Details: in vivo, po, route gavage; for APTT / Bas / Eos / Fbg / Hb / Ht / Lym / MCH / MCHC / MCV / Mono / Neu / PT / Plat / RBC / Ret / WBC: tissue Blood; for KIDNEY_L / KIDNEY_R / KIDNEY_TOTAL: tissue Kidney; for LIVER: tissue Liver; for A/G / ALP / ALT / AST / BUN / CRE / Ca / Cl / DBIL / GLC / IP / K / LDH / Na / PL / RALB / TBIL / TC / TG / TP / gamma-GTP: tissue Plasma
[1] = 0 mg/kg, 72 h, dose level Control, time 3 day
[2] = 0 mg/kg, […], dose level Control, time 7 day
[3] = 0 mg/kg, […], dose level Control, time 14 day
[4] = 0 mg/kg, […], dose level Control, time 28 day
[5] = 400 mg/kg, 72 h, dose level Low, time 3 day
[6] = 400 mg/kg, […], dose level Low, time 7 day
[7] = 400 mg/kg, […], dose level Low, time 14 day
[8] = 400 mg/kg, […], dose level Low, time 28 day

## CCO [ALCOHOL]
[1]
  TERMINAL_BW: 232.9 g
  APTT: 17.2 s
  Bas: 0%
  Eos: 1%
  Fbg: 205.6 mg/dL
  Hb: 14.1 g/dL
  Ht: 41.9%
  Lym: 77%
  MCH: 21.5 pg
  MCHC: 33.7%
  MCV: 63.8 fL
  Mono: 6%
  Neu: 16%
  PT: 11 s
  Plat: 112.5 x10_4/uL
  RBC: 656.4 x10_4/ul
  Ret: 6.7%
  WBC: 82.3 x10_2/uL
  KIDNEY_L: 1 g
  KIDNEY_R: 1 g
  KIDNEY_TOTAL: 2 g
  LIVER: 11.2 g
  A/G: 2.2
  ALP: 935.2 IU/L
  ALT: 39.6 IU/L
  AST: 61.8 IU/L
  BUN: 19.6 mg/dL
  CRE: 0.6 mg/dL
  Ca: 10.9 mg/dL
  Cl: 104.2 meq/L
  DBIL: 0.04 mg/dL
  GLC: 210.6 mg/dL
  IP: 8.7 mg/dL
  K: 4.6 meq/L
  LDH: 75.8 IU/L
  Na: 141 meq/L
  PL: 160.6 mg/dL
  RALB: 3.9 g/dL
  TBIL: 0.3 mg/dL
  TC: 83.8 mg/dL
  TG: 101 mg/dL
  TP: 5.7 g/dL
  gamma-GTP: 1.2 IU/L
[2]
  TERMINAL_BW: 263.1 g
  APTT: 17 s
  Bas: 0%
  Eos: 1.2%
  Fbg: 212.6 mg/dL
  Hb: 14.2 g/dL
  Ht: 42.2%
  Lym: 84.2%
  MCH: 20.7 pg
  MCHC: 33.7%
  MCV: 61.5 fL
  Mono: 4%
  Neu: 10.6%
  PT: 11.1 s
  Plat: 127.1 x10_4/uL
  RBC: 687.8 x10_4/ul
  Ret: 5.2%
  WBC: 114.9 x10_2/uL
  KIDNEY_L: 1.1 g
  KIDNEY_R: 1.2 g
  KIDNEY_TOTAL: 2.3 g
  LIVER: 11.9 g
  A/G: 2.2
  ALP: 783 IU/L
  ALT: 33.6 IU/L
  AST: 62 IU/L
  BUN: 20.4 mg/dL
  CRE: 0.5 mg/dL
  Ca: 10.4 mg/dL
  Cl: 105.6 meq/L
  DBIL: 0.006 mg/dL
  GLC: 197.8 mg/dL
  IP: 7.5 mg/dL
  K: 4.7 meq/L
  LDH: 81.2 IU/L
  Na: 141.4 meq/L
  PL: 143.6 mg/dL
  RALB: 4 g/dL
  TBIL: 0.4 mg/dL
  TC: 71.4 mg/dL
  TG: 108 mg/dL
  TP: 5.7 g/dL
  gamma-GTP: 0.8 IU/L
[3]
  TERMINAL_BW: 302.6 g
  APTT: 19.1 s
  Bas: 0%
  Eos: 1%
  Fbg: 211.2 mg/dL
  Hb: 15.2 g/dL
  Ht: 44.7%
  Lym: 81.4%
  MCH: 20.3 pg
  MCHC: 33.9%
  MCV: 59.9 fL
  Mono: 4.2%
  Neu: 13.4%
  PT: 11.4 s
  Plat: 110 x10_4/uL
  RBC: 746.4 x10_4/ul
  Ret: 4.3%
  WBC: 102.7 x10_2/uL
  KIDNEY_L: 1.2 g
  KIDNEY_R: 1.2 g
  KIDNEY_TOTAL: 2.4 g
  LIVER: 13.2 g
  A/G: 1.9
  ALP: 678.2 IU/L
  ALT: 30 IU/L
  AST: 61.8 IU/L
  BUN: 19 mg/dL
  CRE: 0.5 mg/dL
  Ca: 10.6 mg/dL
  Cl: 105.6 meq/L
  DBIL: 0.028 mg/dL
  GLC: 204.6 mg/dL
  IP: 7.3 mg/dL
  K: 4.4 meq/L
  LDH: 80.2 IU/L
  Na: 142.6 meq/L
  PL: 138.6 mg/dL
  RALB: 3.8 g/dL
  TBIL: 0.4 mg/dL
  TC: 64.4 mg/dL
  TG: 120.6 mg/dL
  TP: 5.9 g/dL
  gamma-GTP: 0.6 IU/L
[4]
  TERMINAL_BW: 359.3 g
  APTT: 17 s
  Bas: 0%
  Eos: 1.6%
  Fbg: 215.6 mg/dL
  Hb: 15.4 g/dL
  Ht: 45.5%
  Lym: 82%
  MCH: 19.1 pg
  MCHC: 33.9%
  MCV: 56.4 fL
  Mono: 5.4%
  Neu: 11%
  PT: 11.2 s
  Plat: 114.3 x10_4/uL
  RBC: 807 x10_4/ul
  Ret: 8%
  WBC: 105.1 x10_2/uL
  KIDNEY_L: 1.3 g
  KIDNEY_R: 1.3 g
  KIDNEY_TOTAL: 2.6 g
  LIVER: 13.9 g
  A/G: 1.5
  ALP: 606.4 IU/L
  ALT: 32 IU/L
  AST: 61.2 IU/L
  BUN: 20.4 mg/dL
  CRE: 0.6 mg/dL
  Ca: 10.5 mg/dL
  Cl: 107 meq/L
  DBIL: 0 mg/dL
  GLC: 219.2 mg/dL
  IP: 6.1 mg/dL
  K: 4.3 meq/L
  LDH: 81.2 IU/L
  Na: 140.8 meq/L
  PL: 148 mg/dL
  RALB: 3.7 g/dL
  TBIL: 0.2 mg/dL
  TC: 76.2 mg/dL
  TG: 148.8 mg/dL
  TP: 6.1 g/dL
  gamma-GTP: 1.6 IU/L
[5]
  TERMINAL_BW: 236 g
  APTT: 17.7 s
  Bas: 0%
  Eos: 1%
  Fbg: 209.2 mg/dL
  Hb: 13.4 g/dL
  Ht: 39.9%
  Lym: 73.4%
  MCH: 21.9 pg
  MCHC: 33.7%
  MCV: 65 fL
  Mono: 8.4%
  Neu: 17%
  PT: 11.1 s
  Plat: 134.3 x10_4/uL
  RBC: 614.8 x10_4/ul
  Ret: 7.6%
  WBC: 100.6 x10_2/uL
  KIDNEY_L: 1 g
  KIDNEY_R: 1.1 g
  KIDNEY_TOTAL: 2.1 g
  LIVER: 11.5 g
  A/G: 2.3
  ALP: 965.4 IU/L
  ALT: 33 IU/L
  AST: 63.8 IU/L
  BUN: 17.2 mg/dL
  CRE: 0.5 mg/dL
  Ca: 11.1 mg/dL
  Cl: 104.4 meq/L
  DBIL: 0.022 mg/dL
  GLC: 198 mg/dL
  IP: 7.9 mg/dL
  K: 4.5 meq/L
  LDH: 103.4 IU/L
  Na: 140.6 meq/L
  PL: 140.6 mg/dL
  RALB: 4 g/dL
  TBIL: 0.3 mg/dL
  TC: 73 mg/dL
  TG: 82.8 mg/dL
  TP: 5.7 g/dL
  gamma-GTP: 2.4 IU/L
[6]
  TERMINAL_BW: 263.9 g
  APTT: 17.6 s
  Bas: 0%
  Eos: 0.8%
  Fbg: 219.6 mg/dL
  Hb: 14.1 g/dL
  Ht: 41.5%
  Lym: 79.6%
  MCH: 21.1 pg
  MCHC: 34.1%
  MCV: 62 fL
  Mono: 5.2%
  Neu: 14.2%
  PT: 11.2 s
  Plat: 133.9 x10_4/uL
  RBC: 669.2 x10_4/ul
  Ret: 5.7%
  WBC: 101.8 x10_2/uL
  KIDNEY_L: 1.1 g
  KIDNEY_R: 1.1 g
  KIDNEY_TOTAL: 2.2 g
  LIVER: 12.6 g
  A/G: 2.3
  ALP: 771.4 IU/L
  ALT: 33.2 IU/L
  AST: 63.4 IU/L
  BUN: 20.8 mg/dL
  CRE: 0.5 mg/dL
  Ca: 10.6 mg/dL
  Cl: 104.6 meq/L
  DBIL: 0 mg/dL
  GLC: 197 mg/dL
  IP: 8.1 mg/dL
  K: 4.7 meq/L
  LDH: 95 IU/L
  Na: 141.6 meq/L
  PL: 158.2 mg/dL
  RALB: 4.1 g/dL
  TBIL: 0.4 mg/dL
  TC: 76.2 mg/dL
  TG: 156.4 mg/dL
  TP: 5.8 g/dL
  gamma-GTP: 1.4 IU/L
[7]
  TERMINAL_BW: 307 g
  APTT: 16.7 s
  Bas: 0%
  Eos: 1%
  Fbg: 217.6 mg/dL
  Hb: 15 g/dL
  Ht: 43.7%
  Lym: 80.6%
  MCH: 20.2 pg
  MCHC: 34.3%
  MCV: 58.9 fL
  Mono: 5.6%
  Neu: 12.8%
  PT: 11.3 s
  Plat: 127.7 x10_4/uL
  RBC: 742.4 x10_4/ul
  Ret: 4.2%
  WBC: 122.9 x10_2/uL
  KIDNEY_L: 1.2 g
  KIDNEY_R: 1.2 g
  KIDNEY_TOTAL: 2.3 g
  LIVER: 13.1 g
  A/G: 2
  ALP: 804.6 IU/L
  ALT: 36 IU/L
  AST: 59.2 IU/L
  BUN: 19.2 mg/dL
  CRE: 0.5 mg/dL
  Ca: 11 mg/dL
  Cl: 105.2 meq/L
  DBIL: 0.028 mg/dL
  GLC: 207.4 mg/dL
  IP: 7.4 mg/dL
  K: 4.2 meq/L
  LDH: 103.2 IU/L
  Na: 142.2 meq/L
  PL: 150.8 mg/dL
  RALB: 3.9 g/dL
  TBIL: 0.4 mg/dL
  TC: 73 mg/dL
  TG: 116.8 mg/dL
  TP: 5.9 g/dL
  gamma-GTP: 0.6 IU/L
[8]
  TERMINAL_BW: 352 g
  APTT: 17.2 s
  Bas: 0%
  Eos: 1.6%
  Fbg: 212 mg/dL
  Hb: 15.7 g/dL
  Ht: 46.9%
  Lym: 80.4%
  MCH: 18.8 pg
  MCHC: 33.6%
  MCV: 55.9 fL
  Mono: 6%
  Neu: 12.4%
  PT: 11.3 s
  Plat: 126.5 x10_4/uL
  RBC: 839 x10_4/ul
  Ret: 7.1%
  WBC: 104.7 x10_2/uL
  KIDNEY_L: 1.3 g
  KIDNEY_R: 1.3 g
  KIDNEY_TOTAL: 2.6 g
  LIVER: 13.5 g
  A/G: 1.6
  ALP: 710 IU/L
  ALT: 30.2 IU/L
  AST: 64 IU/L
  BUN: 20 mg/dL
  CRE: 0.6 mg/dL
  Ca: 10.4 mg/dL
  Cl: 107 meq/L
  DBIL: 0.002 mg/dL
  GLC: 205.6 mg/dL
  IP: 6.4 mg/dL
  K: 4.3 meq/L
  LDH: 96.4 IU/L
  Na: 140.4 meq/L
  PL: 141.4 mg/dL
  RALB: 3.8 g/dL
  TBIL: 0.3 mg/dL
  TC: 69.4 mg/dL
  TG: 113.6 mg/dL
  TP: 6.1 g/dL
  gamma-GTP: 1.4 IU/L
